Experimental data as given in patent US11697648B2, “Fused pyrimidine pyridinone compounds as JAK inhibitors” (THERAVANCE BIOPHARMA R&D IP, LLC, priority 2019, dated 2023).

Legend:
JAK1 = JAK1 (Homo sapiens (Human), UniProt P23458); assay: Biochemical JAK1 kinase assay (LanthaScreen)
Method in brief: (§1)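 GST-JAK + GFP-STAT1 peptide, HEPES pH 7.5/MgCl2/EGTA/Brij-35 buffer; cpd preincubation 1 h RT; ATP start, 1 h RT; stop with 10 mM EDTA + 2 nM Tb-anti-pSTAT1; TR-FRET 520/495. 4-parameter IC50 → pKi (Cheng-Prusoff).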

JAK2 = JAK2 (Homo sapiens (Human), UniProt O60674); assay: Biochemical JAK2 kinase assay (LanthaScreen)
Chain of JAK2 (O60674 whole entry): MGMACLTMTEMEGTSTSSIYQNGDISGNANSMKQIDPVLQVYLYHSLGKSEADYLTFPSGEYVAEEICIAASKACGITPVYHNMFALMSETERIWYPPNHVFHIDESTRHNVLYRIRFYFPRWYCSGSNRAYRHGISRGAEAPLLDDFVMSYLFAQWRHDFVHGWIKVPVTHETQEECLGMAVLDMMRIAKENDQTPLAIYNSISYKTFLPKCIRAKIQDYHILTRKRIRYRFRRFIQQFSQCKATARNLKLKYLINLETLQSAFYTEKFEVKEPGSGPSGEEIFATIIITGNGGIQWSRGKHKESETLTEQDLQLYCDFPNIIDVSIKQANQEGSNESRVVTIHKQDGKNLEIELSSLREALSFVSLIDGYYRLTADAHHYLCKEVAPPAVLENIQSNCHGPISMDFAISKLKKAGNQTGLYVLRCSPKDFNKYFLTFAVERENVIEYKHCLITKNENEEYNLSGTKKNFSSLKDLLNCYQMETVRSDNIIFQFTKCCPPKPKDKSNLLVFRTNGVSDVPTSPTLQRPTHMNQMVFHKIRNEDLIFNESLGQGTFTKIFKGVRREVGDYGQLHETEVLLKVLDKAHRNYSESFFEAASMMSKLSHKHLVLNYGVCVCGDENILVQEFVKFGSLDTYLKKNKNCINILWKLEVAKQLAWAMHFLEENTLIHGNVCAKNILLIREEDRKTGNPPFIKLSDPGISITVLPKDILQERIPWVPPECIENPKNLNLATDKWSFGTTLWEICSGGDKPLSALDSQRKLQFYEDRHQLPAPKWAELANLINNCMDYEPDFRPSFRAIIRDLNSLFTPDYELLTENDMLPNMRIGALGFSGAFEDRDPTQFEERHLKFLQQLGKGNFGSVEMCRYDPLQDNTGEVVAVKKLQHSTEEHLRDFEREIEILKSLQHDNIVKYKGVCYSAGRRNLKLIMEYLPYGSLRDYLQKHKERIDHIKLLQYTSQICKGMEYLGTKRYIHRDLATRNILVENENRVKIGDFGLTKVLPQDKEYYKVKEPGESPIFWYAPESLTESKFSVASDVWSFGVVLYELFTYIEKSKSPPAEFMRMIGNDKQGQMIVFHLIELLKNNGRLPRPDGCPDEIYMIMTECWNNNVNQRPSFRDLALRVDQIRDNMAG
Method in brief: as §1

JAK3 = JAK3 (Homo sapiens (Human), UniProt P52333); assay: Biochemical JAK3 kinase assay (LanthaScreen); conditions: for JAK3 (pKi)-JAK1 (pKi): selectivity JAK3 over JAK1, difference of pKi
Chain of JAK3 (P52333 whole entry): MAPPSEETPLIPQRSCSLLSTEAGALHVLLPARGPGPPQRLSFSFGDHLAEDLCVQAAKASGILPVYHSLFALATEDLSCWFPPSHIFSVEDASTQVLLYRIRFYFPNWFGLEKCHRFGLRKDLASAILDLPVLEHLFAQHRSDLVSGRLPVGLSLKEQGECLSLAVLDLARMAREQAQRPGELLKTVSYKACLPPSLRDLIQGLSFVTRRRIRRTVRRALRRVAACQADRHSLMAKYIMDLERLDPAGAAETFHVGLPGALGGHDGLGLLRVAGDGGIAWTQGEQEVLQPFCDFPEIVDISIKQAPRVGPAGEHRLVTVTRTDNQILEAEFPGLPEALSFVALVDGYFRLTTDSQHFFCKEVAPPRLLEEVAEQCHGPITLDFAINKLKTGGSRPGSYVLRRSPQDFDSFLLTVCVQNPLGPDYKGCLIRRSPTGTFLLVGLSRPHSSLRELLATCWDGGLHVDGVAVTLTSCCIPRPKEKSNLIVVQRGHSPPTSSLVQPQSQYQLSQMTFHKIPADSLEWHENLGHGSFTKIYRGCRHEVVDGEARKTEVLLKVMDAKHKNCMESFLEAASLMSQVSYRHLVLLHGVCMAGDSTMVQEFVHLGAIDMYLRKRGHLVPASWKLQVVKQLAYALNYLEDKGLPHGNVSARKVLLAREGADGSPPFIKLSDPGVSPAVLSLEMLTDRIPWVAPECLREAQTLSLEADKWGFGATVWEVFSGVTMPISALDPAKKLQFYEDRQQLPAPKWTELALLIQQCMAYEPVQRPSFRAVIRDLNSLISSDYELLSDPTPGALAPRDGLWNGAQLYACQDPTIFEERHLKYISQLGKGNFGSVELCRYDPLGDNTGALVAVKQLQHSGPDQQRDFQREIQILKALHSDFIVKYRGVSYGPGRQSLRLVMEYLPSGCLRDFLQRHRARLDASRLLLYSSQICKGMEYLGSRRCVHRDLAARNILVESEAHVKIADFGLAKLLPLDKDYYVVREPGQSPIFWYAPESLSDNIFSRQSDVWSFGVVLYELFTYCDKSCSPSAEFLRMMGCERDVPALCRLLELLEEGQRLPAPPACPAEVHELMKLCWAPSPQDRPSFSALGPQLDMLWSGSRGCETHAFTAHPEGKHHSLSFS
Method in brief: as §1

Tyk2 = Tyk2 (Homo sapiens (Human), UniProt P29597); assay: Biochemical Tyk2 kinase assay (LanthaScreen)
Chain of Tyk2 (P29597 whole entry): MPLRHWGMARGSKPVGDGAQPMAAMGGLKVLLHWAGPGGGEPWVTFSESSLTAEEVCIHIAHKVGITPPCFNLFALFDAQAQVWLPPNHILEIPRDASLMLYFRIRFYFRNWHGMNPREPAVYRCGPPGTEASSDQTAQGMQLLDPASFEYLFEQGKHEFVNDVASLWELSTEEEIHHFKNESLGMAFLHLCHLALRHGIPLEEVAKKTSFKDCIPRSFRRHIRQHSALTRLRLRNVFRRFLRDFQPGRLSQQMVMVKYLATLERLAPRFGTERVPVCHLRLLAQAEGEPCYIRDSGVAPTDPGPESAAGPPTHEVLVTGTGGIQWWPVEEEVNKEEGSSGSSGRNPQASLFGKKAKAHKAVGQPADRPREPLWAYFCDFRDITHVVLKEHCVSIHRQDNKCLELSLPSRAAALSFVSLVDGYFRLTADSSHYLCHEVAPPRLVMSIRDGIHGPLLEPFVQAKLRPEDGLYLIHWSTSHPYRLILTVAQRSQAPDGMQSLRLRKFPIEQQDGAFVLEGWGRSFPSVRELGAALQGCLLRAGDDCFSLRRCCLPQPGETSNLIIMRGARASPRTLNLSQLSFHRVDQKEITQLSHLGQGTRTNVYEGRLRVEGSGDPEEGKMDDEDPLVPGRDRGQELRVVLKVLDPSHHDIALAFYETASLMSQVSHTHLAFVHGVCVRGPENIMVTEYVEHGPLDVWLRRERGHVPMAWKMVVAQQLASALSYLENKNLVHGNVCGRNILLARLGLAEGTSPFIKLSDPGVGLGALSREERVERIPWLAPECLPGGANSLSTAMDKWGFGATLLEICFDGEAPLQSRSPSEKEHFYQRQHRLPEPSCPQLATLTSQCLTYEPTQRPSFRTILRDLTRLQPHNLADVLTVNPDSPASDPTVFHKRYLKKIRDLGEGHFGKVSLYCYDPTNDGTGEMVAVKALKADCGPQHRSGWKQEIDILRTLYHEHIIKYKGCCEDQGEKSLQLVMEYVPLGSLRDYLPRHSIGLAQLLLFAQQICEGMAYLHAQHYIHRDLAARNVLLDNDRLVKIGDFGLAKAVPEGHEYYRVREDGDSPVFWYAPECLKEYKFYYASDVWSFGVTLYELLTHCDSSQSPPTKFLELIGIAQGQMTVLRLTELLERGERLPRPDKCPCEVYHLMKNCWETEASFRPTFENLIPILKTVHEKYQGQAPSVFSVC
Method in brief: as §1

[1] = system: IL-2 stimulated STAT5 phosphorylation in Tall-1 human T cell line (JAK3); assay: Cellular JAK3 potency assay: inhibition of IL-2 stimulated pSTAT5 in Tall-1 T cells; format: cell-based; conditions: IL-2 stimulated pSTAT5, Tall-1 T cells
Method in brief: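 AlphaLISA SureFire Ultra measures STAT5 Tyr694/699 phosphorylation in lysed Tall-1 human T cells. Cells were exposed to compound for 1 h at 37 °C before a 30 min IL-2 challenge (300 ng/ml final). Values are pIC50 means with standard deviation from signal-versus-concentration curves.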

Chain of JAK1 (P23458 whole entry): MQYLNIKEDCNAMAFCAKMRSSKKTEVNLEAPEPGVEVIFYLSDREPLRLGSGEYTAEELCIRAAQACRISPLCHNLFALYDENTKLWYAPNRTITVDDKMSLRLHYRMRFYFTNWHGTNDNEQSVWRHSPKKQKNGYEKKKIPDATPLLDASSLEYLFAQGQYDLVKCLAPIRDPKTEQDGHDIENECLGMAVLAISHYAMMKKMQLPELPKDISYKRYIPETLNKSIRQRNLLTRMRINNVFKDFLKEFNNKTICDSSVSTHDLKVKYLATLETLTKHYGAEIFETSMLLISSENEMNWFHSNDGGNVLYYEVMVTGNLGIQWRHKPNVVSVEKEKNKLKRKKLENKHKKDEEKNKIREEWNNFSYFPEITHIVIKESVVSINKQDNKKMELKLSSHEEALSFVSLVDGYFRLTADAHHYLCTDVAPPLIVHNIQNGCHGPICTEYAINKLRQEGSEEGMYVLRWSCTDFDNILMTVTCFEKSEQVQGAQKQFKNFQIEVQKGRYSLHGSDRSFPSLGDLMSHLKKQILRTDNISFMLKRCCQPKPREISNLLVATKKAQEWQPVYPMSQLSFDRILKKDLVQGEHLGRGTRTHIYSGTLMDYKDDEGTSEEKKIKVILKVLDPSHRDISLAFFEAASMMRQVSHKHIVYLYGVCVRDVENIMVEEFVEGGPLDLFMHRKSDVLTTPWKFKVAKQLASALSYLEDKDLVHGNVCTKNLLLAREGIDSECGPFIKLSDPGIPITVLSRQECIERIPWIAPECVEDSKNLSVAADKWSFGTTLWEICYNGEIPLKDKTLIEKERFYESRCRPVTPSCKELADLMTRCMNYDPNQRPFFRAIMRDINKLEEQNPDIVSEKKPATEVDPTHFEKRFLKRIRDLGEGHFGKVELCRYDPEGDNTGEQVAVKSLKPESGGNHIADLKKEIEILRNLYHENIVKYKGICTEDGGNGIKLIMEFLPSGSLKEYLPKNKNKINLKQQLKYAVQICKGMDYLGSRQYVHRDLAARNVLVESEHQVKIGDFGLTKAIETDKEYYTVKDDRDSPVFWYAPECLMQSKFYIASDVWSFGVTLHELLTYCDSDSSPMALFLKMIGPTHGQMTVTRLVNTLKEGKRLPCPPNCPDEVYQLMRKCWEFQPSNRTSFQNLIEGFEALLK

Compound | JAK 1 (pKi) (JAK1) | JAK 2 (pKi) (JAK2) | JAK 3 (pKi) (JAK3) | JAK3 (pKi)-JAK1 (pKi) (JAK3) | Tyk 2 (pKi) (Tyk2) | Tall-1 (pIC50) [1]
C=CC(=O)N1CC(CCn2c(=O)ccc3cnc(Nc4ccc(N5CCN(C)CC5)c(C)c4)nc32)C1 [Example 166] | E (E represents a pKi value of 7 or below (Ki of 100 nM or above)) | E (E represents a pKi value of 7 or below (Ki of 100 nM or above)) | A (A represents a pKi value≥10 (Ki≤0.1 nM)) | A (A represents a value of 3 or above) | E (E represents a pKi value of 7 or below (Ki of 100 nM or above)) | A (A represents a pIC50 value≥7.5 (IC50≤32 nM))
C=CC(=O)N1CC(CCn2c(=O)ccc3cnc(Nc4ccc(N5CCN(C(C)=O)C[C@@H]5C)cc4)nc32)C1 [Example 168] | E (E represents a pKi value of 7 or below (Ki of 100 nM or above)) | E (E represents a pKi value of 7 or below (Ki of 100 nM or above)) | A (A represents a pKi value≥10 (Ki≤0.1 nM)) | A (A represents a value of 3 or above) | E (E represents a pKi value of 7 or below (Ki of 100 nM or above)) | A (A represents a pIC50 value≥7.5 (IC50≤32 nM))
C=CC(=O)N1CC(CCn2c(=O)ccc3cnc(Nc4ccc(N5CCN(C(C)=O)[C@H](C)C5)cc4)nc32)C1 [Example 169] | E (E represents a pKi value of 7 or below (Ki of 100 nM or above)) | E (E represents a pKi value of 7 or below (Ki of 100 nM or above)) | A (A represents a pKi value≥10 (Ki≤0.1 nM)) | A (A represents a value of 3 or above) | E (E represents a pKi value of 7 or below (Ki of 100 nM or above)) | A (A represents a pIC50 value≥7.5 (IC50≤32 nM))
C=CC(=O)N1CCN(CCn2c(=O)ccc3cnc(Nc4ccc(N5CCN(S(C)(=O)=O)CC5)cc4)nc32)[C@@H](C)C1 [Example 176] | E (E represents a pKi value of 7 or below (Ki of 100 nM or above)) | E (E represents a pKi value of 7 or below (Ki of 100 nM or above)) | A (A represents a pKi value≥10 (Ki≤0.1 nM)) | A (A represents a value of 3 or above) | E (E represents a pKi value of 7 or below (Ki of 100 nM or above)) | B (B represents a pC50 value between 6.7 (included) and 7.5 (IC50 between 200 nM and 32 nM))
C=CC(=O)N1CC(CCn2c(=O)ccc3cnc(Nc4ccc(N5CCN(C(F)(F)F)CC5)cc4)nc32)C1 [Example 177] | E (E represents a pKi value of 7 or below (Ki of 100 nM or above)) | E (E represents a pKi value of 7 or below (Ki of 100 nM or above)) | B (B represents pKi value between 9 and 10 (Ki between 1 nM and 0.1 nM)) | A (A represents a value of 3 or above) | E (E represents a pKi value of 7 or below (Ki of 100 nM or above)) | B (B represents a pC50 value between 6.7 (included) and 7.5 (IC50 between 200 nM and 32 nM))
C=CC(=O)N1CC(CCn2c(=O)ccc3cnc(Nc4ccc(N5CCN(C(C)=O)CC5)c(F)c4)nc32)C1 [Example 181] | E (E represents a pKi value of 7 or below (Ki of 100 nM or above)) | E (E represents a pKi value of 7 or below (Ki of 100 nM or above)) | B (B represents pKi value between 9 and 10 (Ki between 1 nM and 0.1 nM)) | A (A represents a value of 3 or above) | E (E represents a pKi value of 7 or below (Ki of 100 nM or above)) | B (B represents a pC50 value between 6.7 (included) and 7.5 (IC50 between 200 nM and 32 nM))
C=CC(=O)N1CC(CCn2c(=O)ccc3cnc(Nc4ccc(N5CCN(C(C)=O)CC5)c(Cl)c4)nc32)C1 [Example 182] | E (E represents a pKi value of 7 or below (Ki of 100 nM or above)) | E (E represents a pKi value of 7 or below (Ki of 100 nM or above)) | A (A represents a pKi value≥10 (Ki≤0.1 nM)) | A (A represents a value of 3 or above) | E (E represents a pKi value of 7 or below (Ki of 100 nM or above)) | B (B represents a pC50 value between 6.7 (included) and 7.5 (IC50 between 200 nM and 32 nM))
C=CC(=O)N1CC(CCn2c(=O)ccc3cnc(Nc4ccc(N5CCN(C(C)=O)CC5)nc4)nc32)C1 [Example 183] | E (E represents a pKi value of 7 or below (Ki of 100 nM or above)) | E (E represents a pKi value of 7 or below (Ki of 100 nM or above)) | A (A represents a pKi value≥10 (Ki≤0.1 nM)) | A (A represents a value of 3 or above) | E (E represents a pKi value of 7 or below (Ki of 100 nM or above)) | C (C represents a pIC50 value between 6 and 6.7 (IC50 between 1 μM and 200 nM))
C=CC(=O)N1CC(C(C)(C)Cn2c(=O)ccc3cnc(Nc4ccc(N5CCN(C(C)=O)CC5)cc4)nc32)C1 [Example 184] | E (E represents a pKi value of 7 or below (Ki of 100 nM or above)) | E (E represents a pKi value of 7 or below (Ki of 100 nM or above)) | A (A represents a pKi value≥10 (Ki≤0.1 nM)) | A (A represents a value of 3 or above) | E (E represents a pKi value of 7 or below (Ki of 100 nM or above)) | B (B represents a pC50 value between 6.7 (included) and 7.5 (IC50 between 200 nM and 32 nM))
C=CC(=O)N1CCN(CCn2c(=O)ccc3cnc(Nc4cnn(-c5ccccc5)c4)nc32)[C@@H](CC)C1 [Example 195] | E (E represents a pKi value of 7 or below (Ki of 100 nM or above)) | E (E represents a pKi value of 7 or below (Ki of 100 nM or above)) | B (B represents pKi value between 9 and 10 (Ki between 1 nM and 0.1 nM)) | A (A represents a value of 3 or above) | E (E represents a pKi value of 7 or below (Ki of 100 nM or above)) | B (B represents a pC50 value between 6.7 (included) and 7.5 (IC50 between 200 nM and 32 nM))
C=CC(=O)N1CCN(C(C)(C)Cn2c(=O)ccc3cnc(Nc4ccc(N5CCN(C(C)=O)CC5)cc4)nc32)CC1 [Example 200] | E (E represents a pKi value of 7 or below (Ki of 100 nM or above)) | E (E represents a pKi value of 7 or below (Ki of 100 nM or above)) | C (C represents a pKi value between 8 and 9 (Ki between 10 nM and 1 nM)) | B (B represents a value of 2.5 to 3) | E (E represents a pKi value of 7 or below (Ki of 100 nM or above)) | C (C represents a pIC50 value between 6 and 6.7 (IC50 between 1 μM and 200 nM))
C=CC(=O)N1CCN(CCn2c(=O)ccc3cnc(Nc4ccc(N5CCN(CC)CC5)cc4)nc32)CC1 [Example 204] | E (E represents a pKi value of 7 or below (Ki of 100 nM or above)) | E (E represents a pKi value of 7 or below (Ki of 100 nM or above)) | A (A represents a pKi value≥10 (Ki≤0.1 nM)) | A (A represents a value of 3 or above) | E (E represents a pKi value of 7 or below (Ki of 100 nM or above)) | A (A represents a pIC50 value≥7.5 (IC50≤32 nM))
C=CC(=O)N1CCN(CCn2c(=O)ccc3cnc(Nc4ccc(N5CCN(S(=O)(=O)N(C)C)CC5)cc4)nc32)CC1 [Example 211] | E (E represents a pKi value of 7 or below (Ki of 100 nM or above)) | E (E represents a pKi value of 7 or below (Ki of 100 nM or above)) | A (A represents a pKi value≥10 (Ki≤0.1 nM)) | A (A represents a value of 3 or above) | E (E represents a pKi value of 7 or below (Ki of 100 nM or above)) | B (B represents a pC50 value between 6.7 (included) and 7.5 (IC50 between 200 nM and 32 nM))
C=CC(=O)N1CCN(CCn2c(=O)ccc3cnc(Nc4ccc(N5CCN(C(=O)CC(C)C)CC5)cc4)nc32)CC1 [Example 212] | E (E represents a pKi value of 7 or below (Ki of 100 nM or above)) | E (E represents a pKi value of 7 or below (Ki of 100 nM or above)) | A (A represents a pKi value≥10 (Ki≤0.1 nM)) | A (A represents a value of 3 or above) | E (E represents a pKi value of 7 or below (Ki of 100 nM or above)) | B (B represents a pC50 value between 6.7 (included) and 7.5 (IC50 between 200 nM and 32 nM))
C=CC(=O)N1CCN(CCn2c(=O)ccc3cnc(Nc4ccc(N5CCN(C(=O)C(C)C)CC5)cc4)nc32)CC1 [Example 213] | E (E represents a pKi value of 7 or below (Ki of 100 nM or above)) | E (E represents a pKi value of 7 or below (Ki of 100 nM or above)) | A (A represents a pKi value≥10 (Ki≤0.1 nM)) | A (A represents a value of 3 or above) | E (E represents a pKi value of 7 or below (Ki of 100 nM or above)) | B (B represents a pC50 value between 6.7 (included) and 7.5 (IC50 between 200 nM and 32 nM))
